Results from ChEMBL document CHEMBL1201862, “PubChem BioAssay data set” (2004).
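How tested: cells in 96-well plates exposed to compound for 48 hours at five concentrations. Here, GI50 denotes the concentration required for 50% inhibition of growth.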 Calls of active or inactive are those of the source. Rule as the data show it: active = GI50 up to about 1.1 µM and inactive = higher.

Tests used:
Test in all cases: DTP human tumour cell line panel, 48 h
NCI-H460 = tested on: NCI-H460
BT-549 = tested on: BT-549
HOP-92 = tested on: HOP-92
OVCAR-4 = tested on: OVCAR-4
MDA-MB-231 = tested on: MDA-MB-231
SK-OV-3 = tested on: SK-OV-3
M14 = tested on: M14
SF-295 = tested on: SF-295
Hs-578T = tested on: Hs-578T
HOP-62 = tested on: HOP-62
DU-145 = tested on: DU-145
A549 = tested on: A549
K562 = tested on: K562
SK-MEL-5 = tested on: SK-MEL-5
SN12C = tested on: SN12C
A498 = tested on: A498
OVCAR-8 = tested on: OVCAR-8
NCI-H226 = tested on: NCI-H226

Measured: GI50

COc1ccc(/N=N/c2c(C)c(C#N)c(=S)n(C3OC(CO)C(O)C(O)C3O)c2C)cc1 (configuration not stated)
inactive: NCI-H460 35 µM | BT-549 32.7 µM | HOP-92 16.9 µM | OVCAR-4 57.4 µM | MDA-MB-231 62.8 µM | SK-OV-3 > 100 µM | M14 26.7 µM | SF-295 52.1 µM | Hs-578T 41.4 µM | HOP-62 42.3 µM | DU-145 44.7 µM | A549 52.1 µM | K562 29 µM | SK-MEL-5 14.5 µM

CC1(C)[C@@H]2CC[C@]1(C)[C@H](OC(=O)/C=C/c1ccccc1)C2
inactive: NCI-H460 29 µM | BT-549 21.9 µM | OVCAR-4 22 µM | SN12C 18.8 µM | MDA-MB-231 19.3 µM | A498 18.3 µM | SK-OV-3 34.9 µM | OVCAR-8 20.8 µM | M14 29.9 µM | SF-295 18 µM | Hs-578T 19.5 µM | HOP-62 30.2 µM | DU-145 19.4 µM | A549 30.8 µM | K562 19.9 µM | SK-MEL-5 16.7 µM | NCI-H226 20.8 µM

Nc1nc2c(=O)c3ccccc3sc2s1
inactive: NCI-H460 35.1 µM | BT-549 41.4 µM | HOP-92 37.4 µM | SN12C 84.3 µM | MDA-MB-231 31.9 µM | A498 25.4 µM | OVCAR-8 22.6 µM | M14 > 100 µM | SF-295 44.1 µM | Hs-578T 43.7 µM | HOP-62 29.2 µM | DU-145 68.9 µM | A549 33.7 µM | K562 34.8 µM | SK-MEL-5 35.5 µM | NCI-H226 21.7 µM

CCCn1c(=O)c(N2CCN(c3ccccc3)CC2)nc2sc3ccccc3c21
inactive: NCI-H460 > 100 µM | BT-549 97.3 µM | HOP-92 > 100 µM | OVCAR-4 > 100 µM | SN12C > 100 µM | MDA-MB-231 > 100 µM | A498 > 100 µM | SK-OV-3 > 100 µM | OVCAR-8 > 100 µM | M14 > 100 µM | SF-295 > 100 µM | Hs-578T > 100 µM | HOP-62 > 100 µM | DU-145 > 100 µM | A549 > 100 µM | SK-MEL-5 > 100 µM

Cn1c(=O)cc(Nc2ccc(N)cc2)[nH]c1=O
inactive: NCI-H460 > 100 µM | BT-549 > 100 µM | HOP-92 > 100 µM | OVCAR-4 > 100 µM | SN12C > 100 µM | MDA-MB-231 > 100 µM | A498 > 100 µM | SK-OV-3 > 100 µM | OVCAR-8 > 100 µM | M14 > 100 µM | SF-295 > 100 µM | Hs-578T > 100 µM | HOP-62 > 100 µM | A549 > 100 µM | K562 > 100 µM | SK-MEL-5 > 100 µM | NCI-H226 > 100 µM

CC1CC(c2ccccc2)Nc2nc3ccccc3n21 (configuration not stated)
inactive: NCI-H460 > 100 µM | BT-549 > 100 µM | HOP-92 > 100 µM | OVCAR-4 > 100 µM | MDA-MB-231 > 100 µM | A498 > 100 µM | SK-OV-3 > 100 µM | OVCAR-8 > 100 µM | M14 > 100 µM | SF-295 > 100 µM | Hs-578T > 100 µM | HOP-62 > 100 µM | A549 > 100 µM | K562 > 100 µM | SK-MEL-5 > 100 µM | NCI-H226 > 100 µM

CC(=O)c1cc(CC2Cc3cc4c(cc3C2=O)CCC4)cc2c1CCC2 (configuration not stated)
inactive: NCI-H460 36 µM | BT-549 15.4 µM | OVCAR-4 54.8 µM | SN12C 47.4 µM | MDA-MB-231 29.7 µM | A498 84.7 µM | SK-OV-3 62.2 µM | OVCAR-8 46.8 µM | M14 69.7 µM | SF-295 20.4 µM | Hs-578T 35.5 µM | HOP-62 > 100 µM | DU-145 > 100 µM | A549 29.8 µM | K562 12.5 µM | SK-MEL-5 14 µM | NCI-H226 44.9 µM

COC(=O)[C@H](Cc1ccccc1)NC(=O)N1CCCN(C(=O)N[C@@H](Cc2ccccc2)C(=O)OC)CCCN(C(=O)N[C@@H](Cc2ccccc2)C(=O)OC)CCC1
inactive: NCI-H460 27.7 µM | BT-549 31.1 µM | HOP-92 16 µM | OVCAR-4 20.7 µM | SN12C 19.6 µM | A498 19.9 µM | SK-OV-3 22.8 µM | OVCAR-8 20.7 µM | M14 18 µM | SF-295 17.8 µM | Hs-578T 20.7 µM | HOP-62 16.6 µM | DU-145 18.4 µM | A549 27.9 µM | K562 61.1 µM | SK-MEL-5 19.4 µM | NCI-H226 16.5 µM

CCCCCCCC(=O)N1C2CC3CCC2(CS1(=O)=O)C3(C)C (configuration not stated)
inactive: NCI-H460 30.1 µM | BT-549 26.4 µM | HOP-92 20.6 µM | OVCAR-4 32.7 µM | SN12C 20.9 µM | A498 76.9 µM | SK-OV-3 46.8 µM | OVCAR-8 34.1 µM | M14 17.5 µM | SF-295 22.2 µM | Hs-578T 15.6 µM | HOP-62 20.8 µM | DU-145 36.6 µM | A549 27 µM | SK-MEL-5 18.2 µM

CCOC(=O)c1ccc(C(=O)/C(C(C)=O)=C2\CCCN2C)n1C
inactive: NCI-H460 > 100 µM | BT-549 > 100 µM | OVCAR-4 71.1 µM | SN12C > 100 µM | MDA-MB-231 27.5 µM | A498 65.8 µM | SK-OV-3 30.7 µM | OVCAR-8 > 100 µM | M14 > 100 µM | SF-295 56.9 µM | Hs-578T > 100 µM | HOP-62 57.9 µM | DU-145 > 100 µM | A549 > 100 µM | K562 62.7 µM | SK-MEL-5 42.9 µM | NCI-H226 > 100 µM

COc1ccc(NC(=O)N(C)CC2(O)CCC(C(C)(C)C)CC2)cc1 (configuration not stated)
inactive: NCI-H460 59.6 µM | BT-549 63.4 µM | HOP-92 3.66 µM | OVCAR-4 66.2 µM | SN12C > 100 µM | MDA-MB-231 41.8 µM | A498 81.3 µM | SK-OV-3 80.9 µM | OVCAR-8 60.8 µM | M14 > 100 µM | SF-295 29 µM | Hs-578T 33.9 µM | HOP-62 > 100 µM | DU-145 > 100 µM | A549 90.6 µM | K562 66.2 µM

Cc1ccc(S(=O)(=O)NC(=O)NC(C(=O)O)C(C)O)cc1 (configuration not stated)
inactive: NCI-H460 > 100 µM | BT-549 > 100 µM | HOP-92 > 100 µM | OVCAR-4 > 100 µM | SN12C > 100 µM | MDA-MB-231 > 100 µM | SK-OV-3 > 100 µM | OVCAR-8 > 100 µM | M14 > 100 µM | SF-295 > 100 µM | Hs-578T > 100 µM | HOP-62 > 100 µM | DU-145 > 100 µM | A549 > 100 µM | K562 > 100 µM | SK-MEL-5 > 100 µM

Cc1ccc(/C=C/c2n[nH]c(N/N=C/c3ccc4c(c3)OCO4)nc2=O)cc1
inactive: NCI-H460 24.9 µM | BT-549 17.9 µM | OVCAR-4 19.3 µM | SN12C 18.5 µM | MDA-MB-231 15.5 µM | SK-OV-3 30.5 µM | OVCAR-8 15.5 µM | M14 36.6 µM | SF-295 33.7 µM | Hs-578T 13.6 µM | HOP-62 19 µM | DU-145 19.4 µM | A549 38.5 µM | K562 30.1 µM | SK-MEL-5 30.1 µM | NCI-H226 26.9 µM

O=C(Nc1ccc2cc3ccccc3cc2c1)c1cc2c(cc1Cl)Sc1nccn1S2(=O)=O
inactive: NCI-H460 28.7 µM | BT-549 32.5 µM | HOP-92 42 µM | OVCAR-4 10.3 µM | SN12C 60.3 µM | MDA-MB-231 8.97 µM | SK-OV-3 > 100 µM | OVCAR-8 26.4 µM | M14 42.7 µM | SF-295 13.4 µM | Hs-578T > 100 µM | HOP-62 59.6 µM | DU-145 20.6 µM | A549 13.6 µM | K562 10.8 µM | SK-MEL-5 7.93 µM | NCI-H226 82.8 µM

C#C[C@]1(O)CC[C@H]2[C@@H]3CCC4=C/C(=N/NC(=O)c5cccc6c(=O)c7ccccc7[nH]c56)CCC4[C@H]3CC[C@@]21C (some centres not stated)
inactive: BT-549 19.2 µM | HOP-92 > 100 µM | OVCAR-4 45.8 µM | SN12C > 100 µM | MDA-MB-231 > 100 µM | SK-OV-3 > 100 µM | OVCAR-8 21.3 µM | M14 59.8 µM | SF-295 43.4 µM | Hs-578T 32.1 µM | HOP-62 > 100 µM | DU-145 > 100 µM | A549 60.3 µM | K562 73.5 µM | SK-MEL-5 24.4 µM | NCI-H226 73.8 µM

CCCC(=O)C1=C(O)C(Cc2c(O)c(C)c(O)c(C(=O)CCC)c2O)=C(O)C(C)(C)C1=O
inactive: NCI-H460 14.3 µM | BT-549 > 50 µM | HOP-92 10.2 µM | OVCAR-4 43.6 µM | SN12C > 50 µM | MDA-MB-231 > 50 µM | A498 46.8 µM | SK-OV-3 22.6 µM | OVCAR-8 > 50 µM | M14 > 50 µM | SF-295 16.9 µM | Hs-578T 40.6 µM | HOP-62 31.8 µM | DU-145 > 50 µM | A549 25.2 µM | K562 15.4 µM | SK-MEL-5 > 50 µM

O=C(O)c1ccc(Cc2ccccc2C(=O)O)cc1
inactive: NCI-H460 > 100 µM | BT-549 > 100 µM | HOP-92 > 100 µM | OVCAR-4 > 100 µM | SN12C > 100 µM | MDA-MB-231 > 100 µM | A498 > 100 µM | SK-OV-3 > 100 µM | OVCAR-8 > 100 µM | M14 > 100 µM | SF-295 > 100 µM | Hs-578T > 100 µM | HOP-62 > 100 µM | A549 > 100 µM | K562 > 100 µM | SK-MEL-5 > 100 µM | NCI-H226 > 100 µM
